Legend:
mouse sepsis model = test: Mouse sepsis model (LPS), Q-PCR of inflammatory factors; format: in vivo, C57BL/6 mice; design: key: relative mRNA by 2^−ΔΔCt, normalized to Gapdh; conditions: 12 μmol/kg i.g.
From the text: The mice were randomly divided into 8 groups, one of which was randomly selected as the normal group, and the other 7 groups were the model group, the parent drug 1 (0.4 and 4 μmol/kg), the hydrochloride 22 (4 μmol/kg), the fumarate 23 (0.4 and 4 μmol/kg) and dexamethasone (Dex, 12 μmol/kg) groups, respectively, with 6 mice in each group. 5 days before model establishment, the parent drug 1 (0.4 and 4 μmol/kg), the hydrochloride 22 (4 μmol/kg), the fumarate 23 (0.4 and 4 μmol/kg) and Dex (12 μmol/kg) were administered intragastrically. The mice in the normal group and model group were administered intragastrically the same volume of the solvent 0.5% CMC-Na. LPS (10 mg/kg) was injected intraperitoneally 1 hour after administration on the last day to establish a mouse sepsis model.
At 6 h after intraperitoneal injection of LPS, the mice were sacrificed by cervical dislocation, and the abdominal cavity was opened. The lungs, livers and kidneys were taken out, and rinsed twice with pre-cooled PBS. The lung tissues, liver left lobe tissues and kidney tissues of the mice were cut, and fixed with 4% paraformaldehyde for 24-48 h. The remaining tissues were frozen at −70° Cfor subsequent use.
20 mg of kidney, lung and liver tissues were accurately weighed, rinsed with pre-cooled PBS solution, cut into small pieces by ophthalmic surgical scissors, and put into a glass homogenizer, into which was added 1 mL Trizol reagent for grinding to prepare tissue homogenate. Subsequently, the homogenate was transferred into a 1.5 mL EP tube without RNase and lysed on ice for 10 min. 200 μL chloroform was added, and the mixture was shaken violently, stood on ice for 3-5 min, and centrifuged at 12000 rpm and 4° C. for 15 min. The supernatant was aspirated carefully into a new 1.5 mL EP tube without RNase, into which was added the same volume of pre-cooled isopropanol, stood on an ice bath for 30 min, centrifuged at 12000 rpm and 4° C. for 10 min, and the supernatant was discarded. 75% ethanol-DEPC solution was added to wash the precipitate, and the total RNA was obtained by inversion and air drying on flat paper. Subsequently, 10 μL of DEPC treated water was added for dissolution. 1 μL of the total RNA solution was taken, and diluted to 100 times, the OD values of which at 260 nm and 280 nm were measured with a full wavelength microplate reader. If the ratio of OD260/OD280 is between 1.8 and 2.0, it is said that the extracted RNA has a high purity, i.e., it can be used in subsequent experiments.
Subsequent experiments were carried out with 20 μL of a reverse transcription reaction system according to the method described in the kit instructions:
Subsequent experiments were carried out with 20 μL of a reaction system according to the method described in the kit instructions:
The above reagents were added into a micro-reaction tube, sealed with a sealing membrane, and placed in a Q-PCR instrument. The parameters were set according to the following reaction conditions to carry out the amplification experiment. The reaction conditions were as follows:
The threshold cycle (Ct) value of each group was recorded. Calculating and analyzing were carried out by the 2^−ΔΔCt method (the expression level of the control gene Gapdh was set to 1 to correct the expression level of the target gene).

[1] = tested on: mouse acute lung injury model; test: Mouse acute lung injury model (LPS), ELISA; format: in vivo, C57BL/6 mice; conditions: title: serum (text b290: lung tissues), 12 μmol/kg
Method: In addition to the normal group injected intragastrically with PBS, other mice were injected intraperitoneally with LPS (7.5 mg/kg) to establish acute lung injury models. Three days before model establishment, the parent drug 1 (0.4 and 4 μmol/kg), the hydrochloride 22 (0.4 and 4 μmol/kg), the fumarate 23 (0.4 and 4 μmol/kg) and the positive drug Dex (12 μmol/kg) were administered intragastrically in advance, and LPS (7.5 mg/kg) was injected intraperitoneally half an hour after administration on the third day.
abdominal cavity was opened. The lungs were taken out, and rinsed twice with pre-cooled PBS. […] The remaining tissues were frozen at −70° C. for subsequent use.
20 mg of lung tissues were accurately weighed, rinsed with pre-cooled PBS solution, cut into small pieces by ophthalmic surgical scissors, and put into a glass homogenizer, into which was added 180 μL PBS (containing 1 mM PMSF). The mixture was homogenized at 60 HZ for 180 s, and centrifuged at 3000 rpm/min at 4° C. for 20 min. 1 μL supernatant was taken, the protein concentration of which was measured with Nanodrop and leveled, and could be used for subsequent experiments.

[2] = tested on: acute gouty arthritis model rats induced by MSU; test: Rat acute gouty arthritis model induced by MSU; format: in vivo, SD rats
Method: During the adaptive feeding period, 2% pentobarbital sodium was used to anesthetize the rats by intraperitoneal injection at a dose of 0.25 mL/100 g. The circumferences of the ankle joints of the parent left hind limbs of the rats were measured. After the adaptive feeding, 2% pentobarbital sodium was used for intraperitoneal injection anesthesia at a dose of 0.25 mL/100 g. After the anesthesia, 8 rats were randomly selected as the blank group, and normal saline was injected into the joint cavity of their left hind limbs. The other rats were injected with 200 μL sodium urate into the joint cavity of the left hind limbs. 6 h after the model establishment, the rats were anesthetized with pentobarbital sodium, and the joint circumference was measured with a 2 mm wide paper strip. According to the joint swelling ratio, the rats were divided into seven groups.
Administration was carried out once at 10.5 h and 22.5 h after the model establishment, respectively.
Joint swelling is one of the main characteristics of acute gouty arthritis model rats induced by MSU. Before the model establishment, and at 6 h, 12 h and 24 h after the model establishment, the circumferences of the ankle joints of the left hind limbs were measured respectively, and the joint swelling ratios were calculated. The circumferences at 0.5 mm below the ankle joints of the left hind feet of rats in each group were measured with a 2 mm wide paper strip and a ruler, the measurement was repeated twice, and the average value was taken to calculate the joint swelling ratio.
Joint swelling ratio=(joint circumference at test time point−initial joint circumference)/initial joint circumference

[3] = Table 12, title 'in lung' (text b281: liver)

C[C@@H]1C[C@H]2[C@@H]3CCC4=CC(=O)C=C[C@]4(C)[C@@]3(F)[C@@H](O)C[C@]2(C)[C@@]1(O)C(=O)CO [Dex, dexamethasone, reference compound]
Il1 mRNA expression (mouse sepsis model; [3]): 7.54 ± 0.70 | Il6 mRNA expression (mouse sepsis model; [3]): 4.27 ± 1.33 | Tnf mRNA expression (mouse sepsis model; [3]): 7.04 ± 0.77 | Il1 mRNA expression (mouse sepsis model; kidney): 6.05 ± 1.03 | Il6 mRNA expression (mouse sepsis model; kidney): 5.76 ± 0.72 | Tnf mRNA expression (mouse sepsis model; kidney): 6.62 ± 0.68 | Il1 mRNA expression (mouse sepsis model; lung): 7.20 ± 0.36 | Il6 mRNA expression (mouse sepsis model; lung): 9.88 ± 0.80 | Tnf mRNA expression (mouse sepsis model; lung): 8.99 ± 0.76 | IL-1β [1]: 1873.00 ± 86.52 pg/mL | IL-6 [1]: 1423.00 ± 168.40 pg/mL

COc1cc2c(c(OC)c1OC)-c1ccc(OC)c(=O)cc1[C@@H](NC(C)=O)CC2 [colchicine]
joint swelling ratio ([2]; 6 h after model establishment (before dosing), 0.5 mg/kg i.g.): 16.15 ± 1.37 | joint swelling ratio ([2]; 12 h after model establishment, 0.5 mg/kg i.g.): 29.10 ± 3.17 | joint swelling ratio ([2]; 24 h after model establishment, 0.5 mg/kg i.g.): 23.28 ± 2.14

C[C@]12C=CC(=O)C=C1CC[C@@H]1[C@@H]2[C@@H](O)C[C@@]2(C)[C@H]1CC[C@]2(O)C(=O)CO [prednisolone]
joint swelling ratio ([2]; 6 h after model establishment (before dosing), 3.125 mg/kg i.g.): 15.78 ± 1.22 | joint swelling ratio ([2]; 12 h after model establishment, 3.125 mg/kg i.g.): 25.43 ± 2.03 | joint swelling ratio ([2]; 24 h after model establishment, 3.125 mg/kg i.g.): 18.48 ± 1.66
